Data on 30 compounds can be found in patent US8063048B2, “Acetylenyl-pyrazolo-pyrimidine derivatives” (Hoffmann-La Roche Inc., priority 2005, dated 2011).

What is called melting point is the temperature of the solid-liquid transition.

With `CS(=O)(=O)Nc1ccc(C#Cc2cnn3c(C(F)(F)F)cc(-c4ccc(C(F)(F)F)cc4)nc23)cn1` [Example 216, N-{5-[7-Trifluoromethyl-5-(4-trifluoromethyl-phenyl)-pyrazolo[1,5-a]pyrimidin-3-ylethynyl]-pyridin-2-yl}-methanesulfonamide], the melting point is 261 to 263 °C.

Take `CC(O)c1ccc(C#Cc2cnn3c(C(F)(F)F)cc(-c4ccc(C(F)(F)F)cc4)nc23)cc1` (stereo not drawn) [Example 52, 1-{4-[7-Trifluoromethyl-5-(4-trifluoromethyl-phenyl)-pyrazolo[1,5-a]pyrimidin-3-ylethynyl]-phenyl}-ethanol]: the melting point fell in the range of 175 to 178 °C.

In the case of `FC(F)(F)c1cccc(-c2cc(C(F)(F)F)n3ncc(C#Cc4cccnc4)c3n2)c1` [Example 103, 3-Pyridin-3-ylethynyl-7-trifluoromethyl-5-(3-trifluoromethyl-phenyl)-pyrazolo[1,5-a]pyrimidine], the melting point worked out at 173 °C.

In the case of `CCOc1cc(-c2cc(C(F)(F)F)n3ncc(C#Cc4ncc(S(=O)(=O)NC(C)(C)CO)s4)c3n2)ccc1C(F)(F)F` [Example 51, 2-[5-(3-Ethoxy-4-trifluoromethyl-phenyl)-7-trifluoromethyl-pyrazolo[1,5-a]pyrimidin-3-ylethynyl]-thiazole-5-sulfonic acid (2-hydroxy-1,1-dimethyl-ethyl)-amide], the melting point was 209 to 211 °C.

`O=S(=O)(Nc1cccnc1)c1ccc(C#Cc2cnn3c(C(F)F)cc(-c4ccc(C(F)(F)F)cc4)nc23)s1` [Example 281, 5-[7-Difluoromethyl-5-(4-trifluoromethyl-phenyl)-pyrazolo[1,5-a]pyrimidin-3-ylethynyl]-thiophene-2-sulfonic acid pyridin-3-ylamide]: the melting point turned out to be 226 °C.

The compound `Cc1ccc(C#Cc2cnn3c(C(F)(F)F)cc(-c4ccc(C(F)(F)F)cc4)nc23)cn1` [Example 9, 3-(6-Methyl-pyridin-3-ylethynyl)-7-trifluoromethyl-5-(4-trifluoromethyl-phenyl)-pyrazolo[1,5-a]pyrimidine] yielded a melting point of 195 °C.

On to `Cc1cc(-c2cc(C(F)F)n3ncc(C#Cc4cc(S(N)(=O)=O)c(F)cc4F)c3n2)ccc1Cl` [Example 174, 5-[5-(4-Chloro-3-methyl-phenyl)-7-difluoromethyl-pyrazolo[1,5-a]pyrimidin-3-ylethynyl]-2,4-difluoro-benzenesulfonamide], for which the melting point was 270 °C.

Take `CC(C)(O)c1cc(-c2ccc(Cl)cc2)nc2c(C#Cc3ccc(S(N)(=O)=O)s3)cnn12` [Example 154, 5-[5-(4-Chloro-phenyl)-7-(1-hydroxy-1-methyl-ethyl)-pyrazolo[1,5-a]pyrimidin-3-ylethynyl]-thiophene-2-sulfonic acid amide]: the melting point lay in the range of 206 to 208 °C.

`CC(C)(CO)NS(=O)(=O)c1cccc(C#Cc2cnn3c(C(F)F)cc(-c4ccc(C(F)(F)F)cc4)nc23)c1` [Example 32, 3-[7-Difluoromethyl-5-(4-trifluoromethyl-phenyl)-pyrazolo[1,5-a]pyrimidin-3-ylethynyl]-N-(2-hydroxy-1,1-dimethyl-ethyl)-benzenesulfonamide] gave a melting point of 161 to 162 °C.

For `Cc1cc(-c2cc(C(F)(F)F)n3ncc(C#Cc4ccc(S(=O)(=O)NCCN(C)C)s4)c3n2)ccc1Cl` [Example 257, 5-[5-(4-Chloro-3-methyl-phenyl)-7-trifluoromethyl-pyrazolo[1,5-a]pyrimidin-3-ylethynyl]-thiophene-2-sulfonic acid (2-dimethylamino-ethyl)-amide], the melting point was determined as 179 °C.

`CC(C)(CO)NS(=O)(=O)c1cncc(C#Cc2cnn3c(C(F)F)cc(-c4ccc(C(F)(F)F)cc4)nc23)c1` [Example 27, 5-[7-Difluoromethyl-5-(4-trifluoromethyl-phenyl)-pyrazolo[1,5-a]pyrimidin-3-ylethynyl]-pyridine-3-sulfonic acid (2-hydroxy-1,1-dimethyl-ethyl)-amide] returned a melting point of 200 to 201 °C.

In turn, `CC(C)(O)c1ccc(C#Cc2cnn3c(C4CC4)cc(-c4ccc(Cl)cc4)nc23)cc1` [Example 300, 2-{4-[5-(4-Chloro-phenyl)-7-cyclopropyl-pyrazolo[1,5-a]pyrimidin-3-ylethynyl]-phenyl}-propan-2-ol] yielded a melting point of 148 to 150 °C.

`CC(=O)Nc1ncc(C#Cc2cnn3c(C(F)(F)F)cc(-c4ccc(C(F)(F)F)cc4)nc23)cn1` [Example 245, N-{5-[7-Trifluoromethyl-5-(4-trifluoromethyl-phenyl)-pyrazolo[1,5-a]pyrimidin-3-ylethynyl]-pyrimidin-2-yl}-acetamide] came in with a melting point of 293 °C.

`CN(C)CCNS(=O)(=O)c1ccc(C#Cc2cnn3c(C(F)(F)F)cc(-c4ccc(C(F)(F)F)cc4)nc23)cc1` [Example 126, N-(2-Dimethylamino-ethyl)-4-[7-trifluoromethyl-5-(4-trifluoromethyl-phenyl)-pyrazolo[1,5-a]pyrimidin-3-ylethynyl]-benzenesulfonamide] showed a melting point of 193 to 194 °C.

On to `CC(=O)Nc1ccc(C#Cc2cnn3c(C(F)(F)F)cc(-c4ccc(C(F)(F)F)cc4)nc23)cn1` [Example 225, N-{5-[7-Trifluoromethyl-5-(4-trifluoromethyl-phenyl)-pyrazolo[1,5-a]pyrimidin-3-ylethynyl]-pyridin-2-yl}-acetamide], for which the melting point was 266 °C.

Compound `CN(C)CCNS(=O)(=O)c1ccc(C#Cc2ncn3c(C(F)(F)F)cc(-c4ccc(C(F)(F)F)cc4)nc23)s1` [Example 267, 5-[4-Trifluoromethyl-2-(4-trifluoromethyl-phenyl)-imidazo[1,5-a]pyrimidin-8-ylethynyl]-thiophene-2-sulfonic acid (2-dimethylamino-ethyl)-amide] yielded a melting point of 178 °C.

`FC(F)(F)c1cc(-c2ccc(Cl)cc2)nc2c(C#Cc3cccnc3)cnn12` [Example 21, 5-(4-Chloro-phenyl)-3-pyridin-3-ylethynyl-7-trifluoromethyl-pyrazolo[1,5-a]pyrimidine]: the melting point is 214 to 215 °C.

In turn, `COCCNS(=O)(=O)c1cccc(C#Cc2cnn3c(C(F)(F)F)cc(-c4ccc(C(F)(F)F)cc4)nc23)c1` [Example 131, N-(2-Methoxy-ethyl)-3-[7-trifluoromethyl-5-(4-trifluoromethyl-phenyl)-pyrazolo[1,5-a]pyrimidin-3-ylethynyl]-benzenesulfonamide] returned a melting point of 186 to 188 °C.

`Nc1ncc(C#Cc2cnn3c(C(F)(F)F)cc(-c4ccc(Cl)cc4)nc23)cn1` [Example 317, 5-[5-(4-Chloro-phenyl)-7-trifluoromethyl-pyrazolo[1,5-a]pyrimidin-3-ylethynyl]-pyrimidin-2-ylamine] displayed a melting point of 303 to 305 °C.

`NS(=O)(=O)c1ccc(C#Cc2cnc3c(C(F)(F)F)cc(-c4ccc(C(F)(F)F)cc4)cn23)cc1` [Example 181, 4-[8-Trifluoromethyl-6-(4-trifluoromethyl-phenyl)-imidazo[1,2-a]pyridin-3-ylethynyl]-benzenesulfonamide]: the melting point fell in the range of 278 to 280 °C.

For the compound `FC(F)(F)c1ccc(-c2cc(C(F)(F)F)n3ncc(C#Cc4ccncc4)c3n2)cc1` [Example 7, 3-Pyridin-4-ylethynyl-7-trifluoromethyl-5-(4-trifluoromethyl-phenyl)-pyrazolo[1,5-a]pyrimidine], the melting point was 252 to 256 °C.

As to `CC(C)(CO)NS(=O)(=O)c1cnc(C#Cc2cnn3c(C4CC4)cc(-c4ccc(Cl)cc4)nc23)s1` [Example 64, 2-[5-(4-Chloro-phenyl)-7-cyclopropyl-pyrazolo[1,5-a]pyrimidin-3-ylethynyl]-thiazole-5-sulfonic acid (2-hydroxy-1,1-dimethyl-ethyl)-amide], the melting point lay in the range of 204 to 207 °C.

Compound `NS(=O)(=O)c1cncc(C#Cc2cnn3c(C4CC4)cc(-c4ccc(Cl)cc4)nc23)c1` [Example 66, 5-[5-(4-Chloro-phenyl)-7-cyclopropyl-pyrazolo[1,5-a]pyrimidin-3-ylethynyl]-pyridine-3-sulfonic acid amide] gave a melting point of 252 to 254 °C.

As to `NS(=O)(=O)c1cc(C#Cc2ncn3c(C(F)F)cc(-c4ccc(C(F)(F)F)cc4)nc23)c(F)cc1F` [Example 274, 5-[4-Difluoromethyl-2-(4-trifluoromethyl-phenyl)-imidazo[1,5-a]pyrimidin-8-ylethynyl]-2,4-difluoro-benzenesulfonamide], the melting point is 149 °C.

`CCOc1cccc(-c2cc(C(F)F)n3ncc(C#Cc4ccc(N)nc4)c3n2)c1` [Example 208, 5-[7-Difluoromethyl-5-(3-ethoxy-phenyl)-pyrazolo[1,5-a]pyrimidin-3-ylethynyl]-pyridin-2-ylamine] gave a melting point of 162 °C.

In the case of `Cc1cc(-c2ccc(C(F)(F)F)cc2)nc2c(C#Cc3ccc(S(N)(=O)=O)s3)cnn12` [Example 152, 5-[7-Methyl-5-(4-trifluoromethyl-phenyl)-pyrazolo[1,5-a]pyrimidin-3-ylethynyl]-thiophene-2-sulfonic acid amide], the melting point was in the range of 214 to 215 °C.

In turn, `Nc1ccc(C#Cc2cnn3c(CO)cc(-c4ccc(Cl)cc4)nc23)cn1` [Example 298, [3-(6-Amino-pyridin-3-ylethynyl)-5-(4-chloro-phenyl)-pyrazolo[1,5-a]pyrimidin-7-yl]-methanol] displayed a melting point of 215 to 217 °C.

Turning to `Cc1ccc(C#Cc2cnn3c(C(F)F)cc(-c4ccc(C(F)(F)F)cc4)nc23)cc1S(N)(=O)=O` [Example 60, 5-[7-Difluoromethyl-5-(4-trifluoromethyl-phenyl)-pyrazolo[1,5-a]pyrimidin-3-ylethynyl]-2-methyl-benzenesulfonamide], the melting point lay in the range of 265 to 267 °C.

For the compound `O=S(=O)(c1cccc(C#Cc2cnn3c(C(F)(F)F)cc(-c4ccc(C(F)(F)F)cc4)nc23)c1)N1CCOCC1` [Example 129, 3-[3-(morpholine-4-sulfonyl)-phenylethynyl]-7-trifluoromethyl-5-(4-trifluoromethyl-phenyl)-pyrazolo[1,5-a]pyrimidine], the melting point is 203 to 204 °C.

In turn, `N#CCCNS(=O)(=O)c1cccc(C#Cc2cnn3c(C(F)(F)F)cc(-c4ccc(C(F)(F)F)cc4)nc23)c1` [Example 47, N-(2-Cyano-ethyl)-3-[7-trifluoromethyl-5-(4-trifluoromethyl-phenyl)-pyrazolo[1,5-a]pyrimidin-3-ylethynyl]-benzenesulfonamide] returned a melting point of 174 to 182 °C.
